ChEMBL document CHEMBL5500349, “Discovery of ganoderic acid A (GAA) PROTACs as MDM2 protein degraders for the treatment of breast cancer” (Eur J Med Chem, 2024)

Key:
Details in all cases: time 48-72 hrs, read-out: Activity
MCF7 = experiment: Antiproliferative activity against human MCF7 cells assessed as cell viability at 100 uM incubated for 48 to 72 hrs by MTT assay; assay type: functional
MDA-MB-231 = experiment: Antiproliferative activity against human MDA-MB-231 cells assessed as cell viability at 100 uM incubated for 48 to 72 hrs by MTT assay; assay type: functional
SJSA-1 = experiment: Antiproliferative activity against human SJSA-1 cells assessed as cell viability at 100 uM incubated for 48 to 72 hrs by MTT assay; assay type: functional
HepG2 = experiment: Antiproliferative activity against human HepG2 cells assessed as cell viability at 100 uM incubated for 48 to 72 hrs by MTT assay; assay type: functional
[1] = Cytotoxicity against mouse HT-22 cells assessed as cell viability at 100 uM incubated for 48 to 72 hrs by MTT assay; assay type: toxicity, cell-based

In the case of Cc1ncsc1-c1ccc([C@H](C)NC(=O)[C@@H]2C[C@@H](O)CN2C(=O)[C@@H](NC(=O)CCCc2cn(CCOCCOCCOCCOCCNC(=O)[C@H](C)CC(=O)C[C@@H](C)[C@H]3C[C@H](O)[C@@]4(C)C5=C(C(=O)C[C@]34C)[C@@]3(C)CCC(=O)C(C)(C)[C@@H]3C[C@@H]5O)nn2)C(C)(C)C)cc1, the viability at 100 µM (MCF7) is reported as 30.1%, the viability at 100 µM (MDA-MB-231) is reported as 28.7% and the viability at 100 µM (SJSA-1) is reported as 61.7%. The viability at 100 µM (HepG2) was 94.8% and the viability at 100 µM [1] was 96.9%.

Cc1ncsc1-c1ccc([C@H](C)NC(=O)[C@@H]2C[C@@H](O)CN2C(=O)[C@@H](NC(=O)CCCc2cn(CCCNC(=O)[C@H](C)CC(=O)C[C@@H](C)[C@H]3C[C@H](O)[C@@]4(C)C5=C(C(=O)C[C@]34C)[C@@]3(C)CCC(=O)C(C)(C)[C@@H]3C[C@@H]5O)nn2)C(C)(C)C)cc1 showed a viability at 100 µM (MCF7) of 87%, a viability at 100 µM (MDA-MB-231) of 99.1% and a viability at 100 µM (SJSA-1) of 81.5%. For the same molecule, the viability at 100 µM (HepG2) was 90.1% and the viability at 100 µM [1] was 89.1%.

Molecule Cc1ncsc1-c1ccc([C@H](C)NC(=O)[C@@H]2C[C@@H](O)CN2C(=O)[C@@H](NC(=O)CCCCc2cn(CCOCCOCCNC(=O)[C@H](C)CC(=O)C[C@@H](C)[C@H]3C[C@H](O)[C@@]4(C)C5=C(C(=O)C[C@]34C)[C@@]3(C)CCC(=O)C(C)(C)[C@@H]3C[C@@H]5O)nn2)C(C)(C)C)cc1 has a viability at 100 µM (MCF7) of 41.4%, a viability at 100 µM (MDA-MB-231) of 31.6% and a viability at 100 µM (SJSA-1) of 77.1%. For the same molecule, the viability at 100 µM (HepG2) was 86.8% and the viability at 100 µM [1] was 95.9%.

Cc1ncsc1-c1ccc([C@H](C)NC(=O)[C@@H]2C[C@@H](O)CN2C(=O)[C@@H](NC(=O)CCCCc2cn(CCOCCNC(=O)[C@H](C)CC(=O)C[C@@H](C)[C@H]3C[C@H](O)[C@@]4(C)C5=C(C(=O)C[C@]34C)[C@@]3(C)CCC(=O)C(C)(C)[C@@H]3C[C@@H]5O)nn2)C(C)(C)C)cc1 gave a viability at 100 µM (MCF7) of 81.9%, a viability at 100 µM (MDA-MB-231) of 70.8% and a viability at 100 µM (SJSA-1) of 88.2%. For the same molecule, the viability at 100 µM (HepG2) was 94% and the viability at 100 µM [1] was 97%.

Cc1ncsc1-c1ccc([C@H](C)NC(=O)[C@@H]2C[C@@H](O)CN2C(=O)[C@@H](NC(=O)CCCCc2cn(CCCNC(=O)[C@H](C)CC(=O)C[C@@H](C)[C@H]3C[C@H](O)[C@@]4(C)C5=C(C(=O)C[C@]34C)[C@@]3(C)CCC(=O)C(C)(C)[C@@H]3C[C@@H]5O)nn2)C(C)(C)C)cc1 gave a viability at 100 µM (MCF7) of 57.9%, a viability at 100 µM (MDA-MB-231) of 97.5% and a viability at 100 µM (SJSA-1) of 84.6%. For the same molecule, the viability at 100 µM (HepG2) was 96.5% and the viability at 100 µM [1] was 102%.

In the case of C[C@H](CC(=O)C[C@@H](C)[C@H]1C[C@H](O)[C@@]2(C)C3=C(C(=O)C[C@]12C)[C@@]1(C)CCC(=O)C(C)(C)[C@@H]1C[C@@H]3O)C(=O)NCc1cn(CCOCCOCCNc2cccc3c2C(=O)N(C2CCC(=O)NC2=O)C3=O)nn1 (some centres undefined), the viability at 100 µM (MCF7) is reported as 71.2%, the viability at 100 µM (MDA-MB-231) is reported as 63.1% and the viability at 100 µM (SJSA-1) is reported as 60.6%. The viability at 100 µM (HepG2) was 88.8% and the viability at 100 µM [1] was 78.2%.

Work on C[C@H](CC(=O)C[C@@H](C)[C@H]1C[C@H](O)[C@@]2(C)C3=C(C(=O)C[C@]12C)[C@@]1(C)CCC(=O)C(C)(C)[C@@H]1C[C@@H]3O)C(=O)NCCOCCn1cc(CNc2cccc3c2C(=O)N(C2CCC(=O)NC2=O)C3=O)nn1 (some centres undefined) yielded a viability at 100 µM (MCF7) of 81.8%, a viability at 100 µM (MDA-MB-231) of 73.1% and a viability at 100 µM (SJSA-1) of 92.2%. It also gave a viability at 100 µM (HepG2) of 110% and a viability at 100 µM [1] of 99.2%.

For Cc1ncsc1-c1ccc([C@H](C)NC(=O)[C@@H]2C[C@@H](O)CN2C(=O)[C@@H](NC(=O)CCCc2cn(CCOCCOCCNC(=O)[C@H](C)CC(=O)C[C@@H](C)[C@H]3C[C@H](O)[C@@]4(C)C5=C(C(=O)C[C@]34C)[C@@]3(C)CCC(=O)C(C)(C)[C@@H]3C[C@@H]5O)nn2)C(C)(C)C)cc1, the viability at 100 µM (MCF7) was 40.8%, the viability at 100 µM (MDA-MB-231) was 37.7% and the viability at 100 µM (SJSA-1) was 74.1%. The viability at 100 µM (HepG2) was 84.6% and the viability at 100 µM [1] was 101%.

C[C@H](CC(=O)C[C@@H](C)[C@H]1C[C@H](O)[C@@]2(C)C3=C(C(=O)C[C@]12C)[C@@]1(C)CCC(=O)C(C)(C)[C@@H]1C[C@@H]3O)C(=O)NCCOCCOCCOCCn1cc(CNc2cccc3c2C(=O)N(C2CCC(=O)NC2=O)C3=O)nn1 (some centres undefined) showed a viability at 100 µM (MCF7) of 65.5%, a viability at 100 µM (MDA-MB-231) of 69.7% and a viability at 100 µM (SJSA-1) of 83.4%. It also gave a viability at 100 µM (HepG2) of 81.3% and a viability at 100 µM [1] of 97.2%.

With Cc1ncsc1-c1ccc([C@H](C)NC(=O)[C@@H]2C[C@@H](O)CN2C(=O)[C@@H](NC(=O)CCCc2cn(CCOCCNC(=O)[C@H](C)CC(=O)C[C@@H](C)[C@H]3C[C@H](O)[C@@]4(C)C5=C(C(=O)C[C@]34C)[C@@]3(C)CCC(=O)C(C)(C)[C@@H]3C[C@@H]5O)nn2)C(C)(C)C)cc1 the viability at 100 µM (MCF7) was 66.9%, the viability at 100 µM (MDA-MB-231) was 41.8% and the viability at 100 µM (SJSA-1) was 58.4%. The viability at 100 µM (HepG2) was 105% and the viability at 100 µM [1] was 97%.

For C[C@H](CC(=O)C[C@@H](C)[C@H]1C[C@H](O)[C@@]2(C)C3=C(C(=O)C[C@]12C)[C@@]1(C)CCC(=O)C(C)(C)[C@@H]1C[C@@H]3O)C(=O)NCCOCCOCCn1cc(CNc2cccc3c2C(=O)N(C2CCC(=O)NC2=O)C3=O)nn1 (some centres undefined), the viability at 100 µM (MCF7) was 76.8%, the viability at 100 µM (MDA-MB-231) was 71.6% and the viability at 100 µM (SJSA-1) was 85.9%. It also gave a viability at 100 µM (HepG2) of 105% and a viability at 100 µM [1] of 98.7%.

Molecule C[C@H](CC(=O)C[C@@H](C)[C@H]1C[C@H](O)[C@@]2(C)C3=C(C(=O)C[C@]12C)[C@@]1(C)CCC(=O)C(C)(C)[C@@H]1C[C@@H]3O)C(=O)NCCCn1cc(CNc2cccc3c2C(=O)N(C2CCC(=O)NC2=O)C3=O)nn1 (some centres undefined) has a viability at 100 µM (MCF7) of 70.5%, a viability at 100 µM (MDA-MB-231) of 56.2% and a viability at 100 µM (SJSA-1) of 75.7%. It also gave a viability at 100 µM (HepG2) of 116% and a viability at 100 µM [1] of 94.9%.

C[C@H](CC(=O)C[C@@H](C)[C@H]1C[C@H](O)[C@@]2(C)C3=C(C(=O)C[C@]12C)[C@@]1(C)CCC(=O)C(C)(C)[C@@H]1C[C@@H]3O)C(=O)NCc1cn(CCCNc2cccc3c2C(=O)N(C2CCC(=O)NC2=O)C3=O)nn1 (some centres undefined) showed a viability at 100 µM (MCF7) of 65.9%, a viability at 100 µM (MDA-MB-231) of 73.8% and a viability at 100 µM (SJSA-1) of 79.6%. It also gave a viability at 100 µM (HepG2) of 58.4% and a viability at 100 µM [1] of 96.7%.

In the case of C[C@H](CC(=O)C[C@@H](C)[C@H]1C[C@H](O)[C@@]2(C)C3=C(C(=O)C[C@]12C)[C@@]1(C)CCC(=O)C(C)(C)[C@@H]1C[C@@H]3O)C(=O)NCc1cn(CCOCCNc2cccc3c2C(=O)N(C2CCC(=O)NC2=O)C3=O)nn1 (some centres undefined), the viability at 100 µM (MCF7) is reported as 60.7%, the viability at 100 µM (MDA-MB-231) is reported as 48.6% and the viability at 100 µM (SJSA-1) is reported as 88.2%. For the same molecule, the viability at 100 µM (HepG2) was 85.8% and the viability at 100 µM [1] was 83.2%.

For Cc1ncsc1-c1ccc([C@H](C)NC(=O)[C@@H]2C[C@@H](O)CN2C(=O)[C@@H](NC(=O)CCCc2cn(CCOCCOCCOCCNC(=O)[C@H](C)CC(=O)C[C@@H](C)[C@H]3C[C@H](O)[C@@]4(C)C5=C(C(=O)C[C@]34C)[C@@]3(C)CCC(=O)C(C)(C)[C@@H]3C[C@@H]5O)nn2)C(C)(C)C)cc1, the viability at 100 µM (MCF7) was 42.7%, the viability at 100 µM (MDA-MB-231) was 25.5% and the viability at 100 µM (SJSA-1) was 61.8%. It also gave a viability at 100 µM (HepG2) of 89.2% and a viability at 100 µM [1] of 90.2%.

COc1cccc2c1C(=O)c1c(O)c3c(c(O)c1C2=O)C[C@@](O)(C(=O)CO)C[C@@H]3O[C@H]1C[C@H](N)[C@H](O)[C@H](C)O1 [DOXORUBICIN] showed a viability at 100 µM (MCF7) of 57.5%, a viability at 100 µM (MDA-MB-231) of 39.4% and a viability at 100 µM (SJSA-1) of 56.2%. The viability at 100 µM (HepG2) was 64.3%.
